From patent US9839629B2, “Inhibitors of the renal outer medullary potassium channel” (Merck Sharp & Dohme Corp., priority 2013, dated 2017)

What follows are compounds tested against T1, ROMK (Kir1.1) channel (Homo sapiens, UniProt P48048) (assay: Thallium Flux Assay).
T1 sequence (P48048 1-391): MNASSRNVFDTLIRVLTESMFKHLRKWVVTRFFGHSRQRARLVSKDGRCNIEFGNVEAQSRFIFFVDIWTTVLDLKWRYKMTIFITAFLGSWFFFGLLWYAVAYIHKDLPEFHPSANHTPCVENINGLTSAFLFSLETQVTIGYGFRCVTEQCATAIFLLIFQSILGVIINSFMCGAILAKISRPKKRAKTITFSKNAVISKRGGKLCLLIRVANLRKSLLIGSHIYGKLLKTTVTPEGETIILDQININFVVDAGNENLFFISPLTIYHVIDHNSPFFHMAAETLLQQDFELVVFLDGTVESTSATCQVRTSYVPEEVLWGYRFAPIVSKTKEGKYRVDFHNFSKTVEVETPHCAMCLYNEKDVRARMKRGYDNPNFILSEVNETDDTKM
Format: cell-based
How it was run: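 Thallium flux assay as described in WO 2013/062900. Compounds supplied as HCl salts were tested in salt form.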

SMILES | IC50 [µM]
Cc1c([C@@H](O)CN2CCC3(CC2)CCN(C2=C(c4ccncc4)C(=O)OC2)CC3)ccc2c1COC2=O [Example 42, (R)-5-(1-hydroxy-2-(9-(5-oxo-4-(pyridin-4-yl)-2,5-dihydrofuran-3-yl)-3,9-diazaspiro[5.5]undecan-3-yl)ethyl)-4-methylisobenzofuran-1(3H)-one] | 0.352
CC1=C(N2CCC3(CCN(C[C@H](O)c4ccc(-n5cnnn5)nc4)CC3)CC2)COC1=O [Example 47, (R)-4-(9-(2-(6-(1H-tetrazol-1-yl)pyridin-3-yl)-2-hydroxyethyl)-3,9-diazaspiro[5.5]undecan-3-yl)-3-methylfuran-2(5H)-one] | 0.013
Cc1c([C@@H](O)CN2CCC3(CC2)CCN(C2=C(C4CC4)C(=O)OC2)CC3)ccc2c1COC2=O [Example 44, (R)-5-(2-(9-(4-cyclopropyl-5-oxo-2,5-dihydrofuran-3-yl)-3,9-diazaspiro[5.5]undecan-3-yl)-1-hydroxyethyl)-4-methylisobenzofuran-1(3H)-one] | 0.017
O=C1C=C(N2CCC3(CCN(CCc4ccc5c(c4)COC5=O)CC3)CC2)CO1 [Example 1, 5-(2-(9-(5-oxo-2,5-dihydrofuran-3-yl)-3,9-diazaspiro[5.5]undecan-3-yl)ethyl)isobenzofuran-1(3H)-one] | 0.017
Cc1c(N2CCC3(CCN(C[C@@H](O)c4ccc5c(ccc6nnnn65)c4)CC3)CC2)c(=O)c1=O [Example 89, (S)-3-(9-(2-hydroxy-2-(tetrazolo[1,5-a]quinolin-7-yl)ethyl)-3,9-diazaspiro[5.5]undecan-3-yl)-4-methylcyclobut-3-ene-1,2-dione] | 0.257
Cc1c([C@@H](O)CN2CCC3(CC2)CCN(C2=C(Cl)C(=O)OC2)CC3)ccc2c1COC2=O [Example 40, (R)-5-(2-(9-(4-chloro-5-oxo-2,5-dihydrofuran-3-yl)-3,9-diazaspiro[5.5]undecan-3-yl)-1-hydroxyethyl)-4-methylisobenzofuran-1(3H)-one] | 0.005
CC1=C(N2CCC3(CCN(C[C@H](O)c4cccc(-n5cnnn5)n4)CC3)CC2)COC1=O [Example 6A, (S)-4-(9-(2-(6-(1H-tetrazol-1-yl)pyridin-2-yl)-2-hydroxyethyl)-3,9-diazaspiro[5.5]undecan-3-yl)-3-methylfuran-2(5H)-one] | 0.022
Cc1c([C@@H](O)CN2CCC3(CC2)CCN(C2=CC(=O)OC2)CC3)ccc2c1COC2=O [Example 8, (R)-5-(1-hydroxy-2-(9-(5-oxo-2,5-dihydrofuran-3-yl)-3,9-diazaspiro[5.5]undecan-3-yl)ethyl)-4-methylisobenzofuran-1(3H)-one] | 0.049
Cc1nc(-n2cnnn2)ccc1[C@@H](O)CN1CCC2(CC1)CCN(C1=C(C3CC3)C(=O)OC1)CC2 (stereo in doubt) [Example 43, 3-cyclopropyl-4-(9-(2-hydroxy-2-(2-methyl-6-(1H-tetrazol-1-yl)pyridin-3-yl)ethyl)-3,9-diazaspiro[5.5]undecan-3-yl)furan-2(5H)-one] | 0.016
Cc1cc(-n2cnnn2)cnc1C(O)CN1CCC2(CC1)CCN(C1=CC(=O)OC1)CC2 (stereo in doubt) [Example 21, (S)-4-(9-(2-hydroxy-2-(3-methyl-5-(1H-tetrazol-1-yl)pyridin-2-yl)ethyl)-3,9-diazaspiro[5.5]undecan-3-yl)furan-2(5H)-one] | 0.181
CCOC1OC(=O)C=C1N1CCC2(CCN(C[C@H](O)c3ccc4c(c3C)COC4=O)CC2)CC1 (stereo partly drawn) [Example 92, 5-((1R)-2-(9-(2-ethoxy-5-oxo-2,5-dihydrofuran-3-yl)-3,9-diazaspiro[5.5]undecan-3-yl)-1-hydroxyethyl)-4-methylisobenzofuran-1(3H)-one] | 0.539
O=C1C=C(N2CCC3(CCN(C(=O)Cc4cnc(-n5cnnn5)cn4)CC3)CC2)CO1 [Example 106, 4-(9-{[5-(1H-tetrazol-1-yl)pyrazin-2-yl]acetyl}-3,9-diazaspiro[5.5]undec-3-yl)furan-2(5H)-one] | 0.379
CC1=C(N2CCC3(CCN(C[C@H](O)c4ccc(-n5cnnn5)cc4)CC3)CC2)COC1=O [Example 49, (R)-4-(9-(2-(4-(1H-tetrazol-1-yl)phenyl)-2-hydroxyethyl)-3,9-diazaspiro[5.5]undecan-3-yl)-3-methylfuran-2(5H)-one] | 0.016
CC1=C(N2CCC3(CC2)CCN([C@H](CO)c2ccc(-n4cnnn4)cc2C)CC3)COC1=O [Example 57, (S)-4-(9-(2-hydroxy-1-(2-methyl-4-(1H-tetrazol-1-yl)phenyl)ethyl)-3,9-diazaspiro[5.5]undecan-3-yl)-3-methylfuran-2(5H)-one] | 0.232
CC1=C(N2CCC3(CCN(C[C@@H](O)c4ccc(-n5cnnn5)nc4C)CC3)CC2)CCC1=O [Example 75, (S)-3-(9-(2-hydroxy-2-(2-methyl-6-(1H-tetrazol-1-yl)pyridin-3-yl)ethyl)-3,9-diazaspiro[5.5]undecan-3-yl)-2-methylcyclopent-2-enone] | 0.279
CC1=C(N2CCC3(CCN(C[C@H](O)c4ccc(-n5cnnn5)cc4C)CC3)CC2)CCC1=O [Example 77, (R)-3-(9-(2-hydroxy-2-(2-methyl-4-(1H-tetrazol-1-yl)phenyl)ethyl)-3,9-diazaspiro[5.5]undecan-3-yl)-2-methylcyclopent-2-enone] | 0.14
Cc1c(N2CCC3(CCN(C[C@H](O)c4cnc(-n5cnnn5)cn4)CC3)CC2)c(=O)c1=O [Example 85, (S)-3-(9-(2-(5-(1H-tetrazol-1-yl)pyrazin-2-yl)-2-hydroxyethyl)-3,9-diazaspiro[5.5]undecan-3-yl)-4-methylcyclobut-3-ene-1,2-dione] | 0.08
CC1=C(N2CCC3(CCN(C[C@@H](O)c4ccccc4-n4cnnn4)CC3)CC2)COC1=O [Example 69, (S)-4-(9-(2-(2-(1H-tetrazol-1-yl)phenyl)-2-hydroxyethyl)-3,9-diazaspiro[5.5]undecan-3-yl)-3-methylfuran-2(5H)-one] | 0.634
Cc1c(N2CCC3(CCN(C[C@H](O)c4ccc(-n5cnnn5)nc4)CC3)CC2)c(=O)c1=O [Example 81, (R)-3-(9-(2-(6-(1H-tetrazol-1-yl)pyridin-3-yl)-2-hydroxyethyl)-3,9-diazaspiro[5.5]undecan-3-yl)-4-methylcyclobut-3-ene-1,2-dione] | 0.015
